According to PMC10620772, “Design, synthesis, and biological evaluation of new pyrimidine-5-carbonitrile derivatives as novel anti-cancer, dual EGFR^WT/COX-2 inhibitors with docking studies” (RSC Advances, 2023):

Key:
Assay in all cases: NCI60 antitumor screening
Assay type in all cases: cell-based, human
CCRF-CEM = conditions: Homo sapiens; 10 μM single dose; CCRF-CEM (leukaemia); read-out: growth inhibition percent (GI%)
HL-60(TB) = conditions: Homo sapiens; 10 μM single dose; HL-60(TB) (leukaemia); read-out: growth inhibition percent (GI%)
K-562 = conditions: for inhibition at 10 µM: Homo sapiens, 10 μM single dose, (leukaemia), read-out: growth inhibition percent (GI%)
MOLT-4 = conditions: Homo sapiens; 10 μM single dose; MOLT-4 (leukaemia); read-out: growth inhibition percent (GI%)
A549/ATCC = conditions: Homo sapiens; 10 μM single dose; A549/ATCC (non-small cell lung cancer); read-out: growth inhibition percent (GI%)
HOP-62 = conditions: for inhibition at 10 µM: Homo sapiens, 10 μM single dose, HOP-62 (non-small cell lung cancer), read-out: growth inhibition percent (GI%)
NCI-H322M = conditions: Homo sapiens; 10 μM single dose; NCI-H322M (non-small cell lung cancer); read-out: growth inhibition percent (GI%)
NCI-H460 = conditions: Homo sapiens; 10 μM single dose; NCI-H460 (non-small cell lung cancer); read-out: growth inhibition percent (GI%)
NCI-H522 = conditions: Homo sapiens; 10 μM single dose; NCI-H522 (non-small cell lung cancer); read-out: growth inhibition percent (GI%)
HCT-15 = conditions: Homo sapiens; 10 μM single dose; HCT-15 (colon cancer); read-out: growth inhibition percent (GI%)
HT29 = conditions: Homo sapiens, HT-29; 10 μM single dose; HT29 (colon cancer); read-out: growth inhibition percent (GI%)
KM12 = conditions: Homo sapiens; 10 μM single dose; KM12 (colon cancer); read-out: growth inhibition percent (GI%)
SF-268 = conditions: Homo sapiens; 10 μM single dose; SF-268 (CNS cancer); read-out: growth inhibition percent (GI%)
SF-295 = conditions: Homo sapiens; 10 μM single dose; SF-295 (CNS cancer); read-out: growth inhibition percent (GI%)
SF-539 = conditions: for inhibition at 10 µM: Homo sapiens, 10 μM single dose, SF-539 (CNS cancer), read-out: growth inhibition percent (GI%)
SNB-19 = conditions: Homo sapiens; 10 μM single dose; SNB-19 (CNS cancer); read-out: growth inhibition percent (GI%)
SNB-75 = conditions: for inhibition at 10 µM: Homo sapiens, 10 μM single dose, SNB-75 (CNS cancer), read-out: growth inhibition percent (GI%)
U251 = conditions: Homo sapiens, U-251; 10 μM single dose; U251 (CNS cancer); read-out: growth inhibition percent (GI%)
MALME-3M = conditions: Homo sapiens; 10 μM single dose; MALME-3M (melanoma); read-out: growth inhibition percent (GI%)
M14 = conditions: Homo sapiens; 10 μM single dose; M14 (melanoma); read-out: growth inhibition percent (GI%)
MDA-MB-435 = conditions: Homo sapiens; 10 μM single dose; MDA-MB-435 (melanoma); read-out: growth inhibition percent (GI%)
SK-MEL-5 = conditions: Homo sapiens; 10 μM single dose; SK-MEL-5 (melanoma); read-out: growth inhibition percent (GI%)
UACC-257 = conditions: Homo sapiens; 10 μM single dose; UACC-257 (melanoma); read-out: growth inhibition percent (GI%)
IGROV1 = conditions: Homo sapiens, IGROV-1; 10 μM single dose; IGROV1 (ovarian cancer); read-out: growth inhibition percent (GI%)
OVCAR-3 = conditions: Homo sapiens; 10 μM single dose; OVCAR-3 (ovarian cancer); read-out: growth inhibition percent (GI%)
OVCAR-5 = conditions: Homo sapiens; 10 μM single dose; OVCAR-5 (ovarian cancer); read-out: growth inhibition percent (GI%)
786–0 = conditions: for inhibition at 10 µM: Homo sapiens, 10 μM single dose, 786–0 (renal cancer), read-out: growth inhibition percent (GI%)
A498 = conditions: Homo sapiens; 10 μM single dose; A498 (renal cancer); read-out: growth inhibition percent (GI%)
ACHN = conditions: Homo sapiens; 10 μM single dose; ACHN (renal cancer); read-out: growth inhibition percent (GI%)
CAKI-1 = conditions: Homo sapiens; 10 μM single dose; CAKI-1 (renal cancer); read-out: growth inhibition percent (GI%)
SN12C = conditions: Homo sapiens; 10 μM single dose; SN12C (renal cancer); read-out: growth inhibition percent (GI%)
TK-10 = conditions: Homo sapiens; 10 μM single dose; TK-10 (renal cancer); read-out: growth inhibition percent (GI%)
PC-3 = conditions: Homo sapiens; 10 μM single dose; PC-3 (prostate cancer); read-out: growth inhibition percent (GI%)
MCF7 = conditions: Homo sapiens; 10 μM single dose; MCF7 (breast cancer); read-out: growth inhibition percent (GI%)
HS 578T = conditions: for inhibition at 10 µM: Homo sapiens, 10 μM single dose, HS 578T (breast cancer), read-out: growth inhibition percent (GI%)
T-47D = conditions: Homo sapiens, T47D; 10 μM single dose; T-47D (breast cancer); read-out: growth inhibition percent (GI%)
MDA-MB-468 = conditions: Homo sapiens; 10 μM single dose; MDA-MB-468 (breast cancer); read-out: growth inhibition percent (GI%)

Question: What does the source list for `Cc1ccc(CSc2nc(-c3ccc(F)cc3)c(C#N)c(N3CCN(c4ccccc4)CC3)n2)cc1` [4p, 4-(4-Fluorophenyl)-2-((4-methylbenzyl)thio)-6-(4-phenylpiperazin-1-yl) pyrimidine-5-carbonitrile]?
Answer: inhibition at 10 µM (CCRF-CEM): < 10%; inhibition at 10 µM (HL-60(TB)): < 10%; inhibition at 10 µM (K-562): 18%; inhibition at 10 µM (MOLT-4): < 10%; inhibition at 10 µM (A549/ATCC): 11.6%; inhibition at 10 µM (HOP-62): < 10%; inhibition at 10 µM (NCI-H322M): < 10%; inhibition at 10 µM (NCI-H460): < 10%; inhibition at 10 µM (NCI-H522): 13.8%; inhibition at 10 µM (HCT-15): 13.9%; inhibition at 10 µM (HT29): < 10%; inhibition at 10 µM (KM12): < 10%; inhibition at 10 µM (SF-268): 15.3%; inhibition at 10 µM (SF-295): < 10%; inhibition at 10 µM (SF-539): < 10%; inhibition at 10 µM (SNB-19): < 10%; inhibition at 10 µM (SNB-75): 14.8%; inhibition at 10 µM (U251): < 10%; inhibition at 10 µM (MALME-3M): < 10%; inhibition at 10 µM (M14): 11%; inhibition at 10 µM (MDA-MB-435): 10.3%; inhibition at 10 µM (SK-MEL-5): 13.7%; inhibition at 10 µM (UACC-257): 14.1%; inhibition at 10 µM (IGROV1): < 10%; inhibition at 10 µM (OVCAR-3): < 10%; inhibition at 10 µM (OVCAR-5): < 10%; inhibition at 10 µM (786–0): < 10%; inhibition at 10 µM (A498): < 10%; inhibition at 10 µM (ACHN): < 10%; inhibition at 10 µM (CAKI-1): 16.6%; inhibition at 10 µM (SN12C): < 10%; inhibition at 10 µM (TK-10): < 10%; inhibition at 10 µM (PC-3): 25.1%; inhibition at 10 µM (MCF7): 21.3%; inhibition at 10 µM (HS 578T): < 10%; inhibition at 10 µM (T-47D): 12.3%; inhibition at 10 µM (MDA-MB-468): 13.6%

Question: How did the inhibition at 10 µM (CCRF-CEM) turn out when `CN1CCN(c2nc(SCc3ccc(F)cc3)nc(-c3ccc(F)cc3)c2C#N)CC1` [4j, 2-((4-Fluorobenzyl)thio)-4-(4-fluorophenyl)-6-(4-methylpiperazin-1-yl)pyrimidine-5-carbonitrile] was run?
Answer: < 10%

Question: And the inhibition at 10 µM (HL-60(TB))?
Answer: < 10%

Question: What about the GI% (K-562; 10 μM one-dose, Table 1) of the same compound?
Answer: — (GI value > 70%)

Question: What about the inhibition at 10 µM (K-562) of the same compound?
Answer: 18.5%

Question: What about the inhibition at 10 µM (MOLT-4) of the same compound?
Answer: < 10%

Question: And the inhibition at 10 µM (A549/ATCC)?
Answer: 27.7%

Question: And the GI% (HOP-62; 10 μM one-dose, Table 1)?
Answer: — (GI value > 70%)

Question: What about the inhibition at 10 µM (HOP-62) of the same compound?
Answer: 64.4%

Question: And the inhibition at 10 µM (NCI-H322M)?
Answer: 24.6%

Question: What about the inhibition at 10 µM (NCI-H460) of the same compound?
Answer: < 10%

Question: And the inhibition at 10 µM (NCI-H522)?
Answer: 23.6%

Question: What about the inhibition at 10 µM (HCT-15) of the same compound?
Answer: < 10%

Question: What about the inhibition at 10 µM (HT29) of the same compound?
Answer: < 10%

Question: And the inhibition at 10 µM (KM12)?
Answer: < 10%

Question: And the inhibition at 10 µM (SF-268)?
Answer: 15.8%

Question: And the inhibition at 10 µM (SF-295)?
Answer: 56.8%

Question: And the GI% (SF-539; 10 μM one-dose, Table 1)?
Answer: — (GI value > 70%)

Question: And the inhibition at 10 µM (SF-539)?
Answer: 54.8%

Question: What about the inhibition at 10 µM (SNB-19) of the same compound?
Answer: 40.3%

Question: And the GI% (SNB-75; 10 μM one-dose, Table 1)?
Answer: 74.91%

Question: What about the inhibition at 10 µM (SNB-75) of the same compound?
Answer: 74.9%

Question: What about the inhibition at 10 µM (U251) of the same compound?
Answer: 26.2%

Question: And the inhibition at 10 µM (MALME-3M)?
Answer: 39.5%

Question: And the inhibition at 10 µM (M14)?
Answer: 10.4%

Question: And the inhibition at 10 µM (MDA-MB-435)?
Answer: < 10%

Question: What about the inhibition at 10 µM (SK-MEL-5) of the same compound?
Answer: < 10%

Question: What about the inhibition at 10 µM (UACC-257) of the same compound?
Answer: < 10%

Question: What about the inhibition at 10 µM (IGROV1) of the same compound?
Answer: 16.9%

Question: What about the inhibition at 10 µM (OVCAR-3) of the same compound?
Answer: 16.1%

Question: What about the inhibition at 10 µM (OVCAR-5) of the same compound?
Answer: 17.4%

Question: What about the GI% (786–0; 10 μM one-dose, Table 1) of the same compound?
Answer: — (GI value > 70%)

Question: What about the inhibition at 10 µM (786–0) of the same compound?
Answer: 67.1%

Question: And the inhibition at 10 µM (A498)?
Answer: < 10%

Question: What about the inhibition at 10 µM (ACHN) of the same compound?
Answer: 39.1%

Question: What about the inhibition at 10 µM (CAKI-1) of the same compound?
Answer: 57.5%

Question: What about the inhibition at 10 µM (SN12C) of the same compound?
Answer: 20.5%

Question: What about the inhibition at 10 µM (TK-10) of the same compound?
Answer: 15%

Question: What about the inhibition at 10 µM (PC-3) of the same compound?
Answer: 32.3%

Question: What about the inhibition at 10 µM (MCF7) of the same compound?
Answer: 14.8%

Question: What about the GI% (HS 578T; 10 μM one-dose, Table 1) of the same compound?
Answer: — (GI value > 70%)

Question: And the inhibition at 10 µM (HS 578T)?
Answer: 60.4%

Question: And the inhibition at 10 µM (T-47D)?
Answer: 18.3%

Question: And the inhibition at 10 µM (MDA-MB-468)?
Answer: 23.6%
